In assay [1] the target is T1, Alpha-1D adrenergic receptor (Rattus norvegicus) (UniProt P23944).
T1 sequence (whole entry): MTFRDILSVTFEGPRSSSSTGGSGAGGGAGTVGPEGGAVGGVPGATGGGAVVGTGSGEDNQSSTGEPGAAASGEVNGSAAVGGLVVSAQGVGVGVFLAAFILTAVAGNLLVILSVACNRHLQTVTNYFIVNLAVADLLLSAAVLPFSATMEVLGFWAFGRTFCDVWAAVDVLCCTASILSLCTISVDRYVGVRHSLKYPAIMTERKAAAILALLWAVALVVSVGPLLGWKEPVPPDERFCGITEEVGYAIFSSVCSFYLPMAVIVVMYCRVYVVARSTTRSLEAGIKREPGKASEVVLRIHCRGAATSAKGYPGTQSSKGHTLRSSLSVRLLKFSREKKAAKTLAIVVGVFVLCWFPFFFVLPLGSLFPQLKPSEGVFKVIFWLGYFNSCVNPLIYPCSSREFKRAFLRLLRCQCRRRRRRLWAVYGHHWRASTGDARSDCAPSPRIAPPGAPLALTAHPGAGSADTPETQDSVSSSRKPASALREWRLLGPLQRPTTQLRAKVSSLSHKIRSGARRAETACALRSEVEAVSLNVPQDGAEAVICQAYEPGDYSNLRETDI
Description: Antagonist activity at Alpha-1D adrenoceptor in Wistar rat endothelium denuded thoracic aorta assessed as inhibition of (-)-noradrenalilne-induced contraction after 30 mins. The assay is classed as functional, tissue-based.

For assay [2], the target named is T2, Alpha-1B adrenergic receptor (Homo sapiens, UniProt P35368).
T2 sequence (P35368 whole entry): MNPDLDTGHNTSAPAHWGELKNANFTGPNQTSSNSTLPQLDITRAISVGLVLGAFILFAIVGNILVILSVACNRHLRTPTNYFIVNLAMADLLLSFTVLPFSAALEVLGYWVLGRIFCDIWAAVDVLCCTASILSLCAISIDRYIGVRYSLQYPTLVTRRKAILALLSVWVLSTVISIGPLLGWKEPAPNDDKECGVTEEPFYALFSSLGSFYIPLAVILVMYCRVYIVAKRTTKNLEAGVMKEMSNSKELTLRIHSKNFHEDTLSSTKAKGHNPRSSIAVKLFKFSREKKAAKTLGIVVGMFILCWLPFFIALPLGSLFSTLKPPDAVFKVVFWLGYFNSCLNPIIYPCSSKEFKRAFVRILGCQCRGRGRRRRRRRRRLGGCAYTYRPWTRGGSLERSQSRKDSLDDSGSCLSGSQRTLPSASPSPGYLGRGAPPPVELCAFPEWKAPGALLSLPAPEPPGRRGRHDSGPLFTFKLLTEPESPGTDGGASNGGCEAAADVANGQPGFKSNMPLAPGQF
Description: biochemical.
Description: Displacement of [3H]prazosin from human recombinant alpha1B adrenoceptor expressed in CHO cells after 30 mins by liquid scintillation counting

The target of assay [3] is T3, 5-hydroxytryptamine receptor 1A (Homo sapiens, UniProt P08908).
T3 sequence (P08908 whole entry): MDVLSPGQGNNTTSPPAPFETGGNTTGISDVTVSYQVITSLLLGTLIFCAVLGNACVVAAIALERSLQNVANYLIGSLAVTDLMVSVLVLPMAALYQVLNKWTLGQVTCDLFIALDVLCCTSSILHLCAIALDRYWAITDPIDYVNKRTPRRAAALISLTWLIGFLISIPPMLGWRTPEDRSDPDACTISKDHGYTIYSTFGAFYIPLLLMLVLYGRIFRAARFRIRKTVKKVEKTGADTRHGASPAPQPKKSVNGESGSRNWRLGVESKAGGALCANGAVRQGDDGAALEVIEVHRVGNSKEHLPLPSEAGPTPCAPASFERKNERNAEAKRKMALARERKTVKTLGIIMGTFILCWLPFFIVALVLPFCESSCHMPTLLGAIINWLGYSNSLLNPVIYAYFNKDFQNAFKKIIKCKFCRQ
Briefly: biochemical.

The target in assay [4] is T4, Alpha-1A adrenergic receptor (Rattus norvegicus) (UniProt P43140).
T4 sequence (whole entry): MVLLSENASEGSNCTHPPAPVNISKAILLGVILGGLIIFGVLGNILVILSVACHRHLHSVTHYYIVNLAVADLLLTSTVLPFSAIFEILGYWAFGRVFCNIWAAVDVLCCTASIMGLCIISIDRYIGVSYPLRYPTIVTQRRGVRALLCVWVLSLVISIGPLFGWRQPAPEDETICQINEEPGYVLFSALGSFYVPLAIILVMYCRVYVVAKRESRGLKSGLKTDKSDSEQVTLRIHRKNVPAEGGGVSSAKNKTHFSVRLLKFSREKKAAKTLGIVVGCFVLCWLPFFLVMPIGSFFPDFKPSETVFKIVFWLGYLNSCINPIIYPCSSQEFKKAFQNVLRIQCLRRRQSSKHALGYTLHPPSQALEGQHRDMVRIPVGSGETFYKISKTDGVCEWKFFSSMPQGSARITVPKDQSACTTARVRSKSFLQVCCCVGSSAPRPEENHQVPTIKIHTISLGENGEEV
Briefly: Antagonist activity at alpha1A adrenoceptor in Wistar rat prostatic vas deferens assessed as inhibition of (-)-noradrenalilne-induced contraction after 30 mins. The assay is classed as functional, tissue-based.

Assay [5] addresses T5, Alpha-1A adrenergic receptor (Homo sapiens, UniProt P35348).
T5 sequence (P35348 whole entry): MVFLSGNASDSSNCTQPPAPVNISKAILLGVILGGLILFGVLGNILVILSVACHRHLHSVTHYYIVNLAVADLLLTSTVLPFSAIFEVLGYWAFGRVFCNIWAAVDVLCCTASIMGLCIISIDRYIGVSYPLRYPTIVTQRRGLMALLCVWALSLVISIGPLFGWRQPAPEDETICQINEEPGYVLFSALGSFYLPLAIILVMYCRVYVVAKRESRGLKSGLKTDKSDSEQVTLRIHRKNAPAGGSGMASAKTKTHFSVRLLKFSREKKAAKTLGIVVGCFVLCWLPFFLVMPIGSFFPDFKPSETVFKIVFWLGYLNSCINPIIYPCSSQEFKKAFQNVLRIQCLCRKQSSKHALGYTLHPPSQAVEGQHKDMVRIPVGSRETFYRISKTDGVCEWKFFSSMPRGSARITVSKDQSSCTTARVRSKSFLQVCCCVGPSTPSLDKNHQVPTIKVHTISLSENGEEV
Description: biochemical.
Description: Displacement of [3H]prazosin from human recombinant alpha1A adrenoceptor expressed in CHO cells after 30 mins by liquid scintillation counting

For assay [6], the target named is T6, Alpha-1B adrenergic receptor (Rattus norvegicus) (UniProt P15823).
T6 sequence (whole entry): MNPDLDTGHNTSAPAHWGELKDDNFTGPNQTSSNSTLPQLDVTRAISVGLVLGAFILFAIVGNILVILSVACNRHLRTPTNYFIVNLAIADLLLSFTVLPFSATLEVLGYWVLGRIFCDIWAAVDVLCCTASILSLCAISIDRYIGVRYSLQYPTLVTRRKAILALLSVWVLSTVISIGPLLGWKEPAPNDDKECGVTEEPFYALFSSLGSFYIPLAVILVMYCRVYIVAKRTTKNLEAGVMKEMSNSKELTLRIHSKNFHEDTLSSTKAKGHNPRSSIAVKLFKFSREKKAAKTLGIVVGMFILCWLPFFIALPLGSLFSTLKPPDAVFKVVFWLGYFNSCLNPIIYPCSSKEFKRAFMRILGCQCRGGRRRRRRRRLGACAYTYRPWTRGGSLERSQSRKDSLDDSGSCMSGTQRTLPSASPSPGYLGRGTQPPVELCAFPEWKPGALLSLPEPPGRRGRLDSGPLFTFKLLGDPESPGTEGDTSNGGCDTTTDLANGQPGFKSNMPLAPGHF
Description: Antagonist activity at Alpha-1B receptor in Wistar rat spleen assessed as inhibition of (-)-phenylephrine-induced contraction after 30 mins. The format is functional, tissue-based.

The target in assay [7] is T7, Alpha-1D adrenergic receptor (Homo sapiens, UniProt P25100).
T7 sequence (P25100 whole entry): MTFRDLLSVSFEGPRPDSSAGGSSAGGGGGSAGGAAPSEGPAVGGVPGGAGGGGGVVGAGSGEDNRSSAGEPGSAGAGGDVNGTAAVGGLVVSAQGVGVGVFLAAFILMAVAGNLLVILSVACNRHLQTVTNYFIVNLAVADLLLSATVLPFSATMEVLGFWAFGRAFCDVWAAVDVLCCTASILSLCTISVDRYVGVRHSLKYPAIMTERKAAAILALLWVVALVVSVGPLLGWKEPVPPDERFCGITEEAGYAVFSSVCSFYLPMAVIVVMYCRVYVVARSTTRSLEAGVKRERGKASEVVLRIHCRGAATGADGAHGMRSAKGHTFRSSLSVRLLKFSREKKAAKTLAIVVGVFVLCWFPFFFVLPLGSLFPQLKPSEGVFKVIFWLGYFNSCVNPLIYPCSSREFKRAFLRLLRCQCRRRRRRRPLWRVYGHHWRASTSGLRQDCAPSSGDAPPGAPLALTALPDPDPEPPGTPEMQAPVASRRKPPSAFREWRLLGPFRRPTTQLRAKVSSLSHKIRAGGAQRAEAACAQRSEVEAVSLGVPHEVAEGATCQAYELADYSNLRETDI
Briefly: biochemical.
Description: Displacement of [3H]prazosin from human recombinant Alpha-1D adrenoceptor expressed in CHO cells after 30 mins by liquid scintillation counting

In assay [8] the target is T8, 5-hydroxytryptamine receptor 1A (Homo sapiens) (UniProt P08908).
T8 sequence (whole entry): T3 sequence (P08908 whole entry)
The conditions noted are these: HeLa.

The target of assay [9] is T8, 5-hydroxytryptamine receptor 1A (Homo sapiens). Briefly: Agonist activity at human recombinant 5HT1A receptor expressed in HeLa cells preincubated for 20 mins by [35S]GTPgammaS binding assay relative to 8-OH-DPAT. The format is functional, cell-based. In general terms: Binding of GTPγS marks nucleotide exchange on a G protein.

Consider `c1ccc(OCCNCC2CCC(c3ccccc3)(c3ccccc3)O2)cc1` (stereo not drawn), for which the pKb was 7.21 in assay [1], 6.26 in [4] and 6.2 in assay [6]. The Ki in assay [2] was 123 nM; in assay [3] it was 2 nM; in assay [5] it was 53.7 nM; in assay [7], 31.6 nM.
As for `COc1ccccc1N1CCN(CCN2C(=O)CC3(CCCC3)CC2=O)CC1`, in assay [8], the pD2 was 9.27. Also, the negative logarithm of the Kb (pKb) in assay [6] was found to be 7.48.
Regarding `c1ccc(OCCNCC2COC(c3ccccc3)(c3ccccc3)O2)cc1` (stereo not drawn), the pKb in assay [1] worked out at 8.37; in assay [4], 6.16; in assay [6] it was 5.86. In addition, in assay [8], the pD2 stood at 8.8. In addition, in assay [9], the Emax came out at 24.4%.
The matching figures for `COc1ccccc1OCCNCC1COC(c2ccccc2)(c2ccccc2)O1` (stereo not drawn): 8.65, 7.53, 7.36, 7.36 and 31.6%.
For the compound `COc1ccccc1N1CCN(CC2CCC(c3ccccc3)(c3ccccc3)O2)CC1` (stereo not drawn), the results for the pKb in assay [1], in [4] and in assay [6] were 7.5, 7.65 and 6.85, respectively. The inhibitory constant (Ki) in assay [2] is 8.91 nM; in assay [3], 4.37 nM; in [5], 0.646 nM; in assay [7], 3.89 nM.
`COc1ccccc1N1CCN(CC2CCC(c3ccccc3)(c3ccccc3)C2=O)CC1` (stereo not drawn): the pKb turned out to be 6.43 in assay [1], 6.28 in [4] and 7.54 in [6]. The Ki in [2] is 141 nM; in assay [3] it was 3.47 nM; in assay [5], 39.8 nM; in [7] it was 155 nM.

As a reminder, the pKb is the Kb on a negative log10 scale, so that one unit is a factor of ten. In general, Ki refers to the dissociation constant of the complex between target and ligand, obtained from inhibition or displacement. The term Emax denotes the greatest response seen or fitted, relative to the assay's reference.

The record behind these values is ChEMBL document CHEMBL1944594, “Synthesis, biological evaluation, and docking studies of tetrahydrofuran- cyclopentanone- and cyclopentanol-based ligands acting at adrenergic α₁- and serotonine 5-HT1A receptors” (J Med Chem, 2012).
